The nature of this series: in vivo. The settings on record: male, RoRo Fuellinsdorf, rat, in vivo; for AUC(0-t): AUC (0-24 h). On the procedure:
In Example 11, the pharmacokinetics of the compound of Formula I was evaluated following single intravenous, intraperitoneal, and oral administration to rats to compare the oral bioavailability of two different formulations and to measure the brain penetration after intravenous administration.
A solution of the compound of Formula I (4.7 mg/mL) in water and a suspension of the compound of Formula I (5 mg/mL) in SSV (standard suspension vehicle) were prepared.
The experiments were performed in 20 male rats (Strain RoRo Fuellinsdorf, body weight 230-290 g) from Biological Research Laboratories, Fuellinsdorf, Switzerland. The animals were housed under standard laboratory conditions throughout the study period. After an acclimatization period of 3 days, the rats were implanted with chronic jugular catheters under pentobarbital anesthesia. After surgery the rats were on recovery for 2 days before dosing. They had free access to water and food during the experiment.
For the pharmacokinetic studies, 0.4 mL blood samples were collected at different time points, up to 72 hours post-dose, from the jugular vein of the rats via catheter. For the study of brain and CSF penetration, 2 mL blood samples as well as CSF and brain were collected between 0.3 and 2 hours post-dose from one rat at each time point. Collection tubes contained EDTA/NAF as anticoagulant and stabilizer, respectively. After centrifugation, plasma was removed. Plasma, CSF and brain samples were stored deep-frozen at approximately −20° C. until analysis using a specific LC-MS method.
Aliquots of plasma samples of 40 μL were mixed with 50 μL buffer pH 9, 50 μL of a Formula I internal standard (1 μg/mL 1-chlorobutane) and 250 μL butylacetate and then shaken for 10 min. After centrifugation, 200 μL of the supernatant were evaporated to dryness at 45° C. under a stream of nitrogen. The residue was reconstituted with 200 μL acetonitrile/1% formic acid in water (30/70, v/v). An aliquot of 30 μL was injected onto an analytical column (Waters, Symmetry C8, 2.1×150 mm, 5 μm).
The sample passed to the ion-spray interface of the single quadrupole mass spectrometer. Selected ion monitoring mode (SIM) was used for mass spectrometric detection. Quantification was based on peak area ratios and calibration curve established by weighted (1/x^2) linear regression. The calibration curve was established between 5 and 5000 ng/mL using dog plasma as matrix. Data acquisition and integration of SIM chromatograms were performed using MacQuan (version 1.6) from Perkin-Elmer Sciex.
The pharmacokinetic parameters were estimated by non-compartmental analysis, using the pharmacokinetic evaluation program WinNOnlin [1]. AUC(0-inf) was calculated applying the linear trapezoidal rule and extrapolation to infinity using the apparent elimination rate constant λz and the calculated concentration at the last measurable time point. AUClast values were calculated by linear trapezoidal rule from time zero to time of last measureable time point. Cmax, C(t), and Tmax were determined directly from the plasma concentration-time profiles. The apparent terminal half-life (T1/2) was derived from the equation: T1/2=ln2/λz. Means of the half-life were calculated by harmonic means. Plasma clearance, CL, was calculated as D/AUC(0-inf.). Volume of distribution, Vz, was calculated as CL/λz. The absolute bioavailability was calculated from plasma concentration data as follows: […]
A solution of Formula I (hydrochloride salt) was administered intravenously at a dose of 9.4 mg/kg to 2 male rats in two subsequent experiments. In both studies, blood samples were obtained at 0.083, 0.25, 0.5, 1, 2, 4, 6, 8, and 24 h after intravenous application and in addition at 48 and 72 h in the study.

For `Cc1ccccc1-c1cc(N2CCN(C)CC2)ncc1N(C)C(=O)C(C)(C)c1cc(C(F)(F)F)cc(C(F)(F)F)c1` [Formula I, 2-(3,5-bis(trifluoromethyl)phenyl)-N,2-dimethyl-N-(6-(4-methylpiperazin-1-yl)-4-(o-tolyl)pyridin-3-yl)propanamide], the “AUC (0-24 h)” value was 19900 ng·h/mL (ip, 9.4 mg/kg); 24400 ng·h/mL (iv, 9.4 mg/kg); 12600 ng·h/mL (po, 9.4 mg/kg). For the same compound, the Cmax (ip, 9.4 mg/kg) is listed as 1730 ng/mL; the peak level (ip, 9.4 mg/kg, Cmax) (Cmax) was 1610 ng/mL; the maximum concentration (Cmax) (po, 9.4 mg/kg) turned out to be 682 ng/mL; the concentration (po, 9.4 mg/kg, Cmax) peaked (Cmax) at 991 ng/mL. Also, the time of peak concentration (Tmax) is 0.25 h (ip, 9.4 mg/kg); not above 0.25 h (ip, 9.4 mg/kg, Tmax); 4 h (po, 9.4 mg/kg); 2 h (po, 9.4 mg/kg, Tmax). The AUC(0-t) by setting is: (ip, 9.4 mg/kg) 26800 ng·h/mL; (iv, 9.4 mg/kg) 29200 ng·h/mL; (po, 9.4 mg/kg) 15000 ng·h/mL. Further, under “iv”, the Vd was 12 L/kg. Further, the clearance (iv) is 6 mL/min/kg. Also, the half-life runs as follows: (iv, 9.4 mg/kg, mean apparent terminal half-life) 19.5 h; (po, 9.4 mg/kg, T1/2) 17.7 h. The same compound gave a T1/2 (po, 9.4 mg/kg) of 18.9 h.

For orientation: Cmax means the peak of the concentration-time curve. One may read the Tmax as the time from dosing to the highest level. In general, AUC(0-t) refers to exposure summed from dosing to a finite time, without extrapolation to infinity. A low value points to low exposure. The Vd is a proportionality between amount in the body and measured concentration, not a real space. Read a low Vd as little distribution into tissue. A word on the clearance: it is a measure of how efficiently the substance is removed, as volume per time. Read a low clearance as a low capacity for elimination. What is called half-life is how long it takes for the measured level to halve.

(Values after US10676440B2, “Crystalline forms of an NK-1 antagonist” (Helsinn Healthcare SA, priority 2014, dated 2020).)
